Patent US20040242641A1, “(1S,5S)-3-(5,6-dichloro-3-pyridinyl)-3,6-diazabicyclo[3.2.0]heptane is an effective analgesic agent” (priority 2003, published 2004)
pEC50, pKi: −log10 of the molar value. Read-outs that look alike come from different tables or passages of the source.

Experiments:
[1] = test system: mechanical allodynia in the affected paw of animals that had undergone spinal nerve ligation; test: Spinal nerve (L5/L6) ligation neuropathic pain model, mechanical allodynia with von Frey filaments; assay type: in vivo, rat; settings: for ED50: Rattus norvegicus, read-out: Analgesic Effect ED50
From the text: Male Sprague Dawley rats (80-100 g) were purchased from Charles River (Portage, Mich.). Prior to surgery, animals were group-housed and maintained in a temperature regulated environment (lights on between 7:00 a.m. and 8:00 p.m.). Following nerve ligation surgery, animals were group housed. Rats had access to food and water ad libitum.
The L5 and L6 spinal nerves of anesthesized rats were tightly ligated in the manner described previously by S. H. Kim and J. M. Chung, PAIN 50:355 (1992). Briefly, an incision was made on the dorsal portion of the hip and the muscle was blunt dissected to reveal the spinal processes. The L6 transverse process was removed, and the left L5 and L6 spinal nerves were tightly ligated with 5.0 braided silk suture. The wound was cleaned, the membrane sewn with 4.0 dissolvable Vicryl suture and the skin closed with wound clips.
For the assessment of neuropathic pain, mechanical allodynia in the affected paw of animals that had undergone spinal nerve ligation was evaluated using von Frey filaments. As described previously by S. R. Chaplan, F. W. Bach, J. W. Pogrel, J. M. Chung, and T. L. Yaksh, “Quantitative assessment of tactile allodynia in the rat paw” J. Neurosci. Meth., 53:55-63 (1994) two weeks following surgery, rats were acclimated to the testing box that was constructed of plexiglass with a wire mesh floor to allow access to the planter surface of the hindpaws. Using the Dixons Up-Down method, a baseline level of allodynia was determined to have a withdrawal threshold of <4 g of pressure. […] The EC50 was determined to be 1 μmol/kg.

[2] = molecular target: T1, ganglionic-like nicotinic acetylcholine receptor (nAChR) subtype in IMR-32 human neuroblastoma cells (Homo sapiens, UniProt P30926+P32297); test: IMR-32 FLIPR assay, intracellular Ca2+ changes (side effect liability); assay type: cell-based
T1 construct: host or cells: IMR-32 human neuroblastoma cells
Protocol: Cells were plated out at a density of 1×10^6 cells per well on black-walled, clear-bottomed, 96-well plates (Costar, Cambridge, Mass.) and used approximately 72 hours after plating. All plates were coated with polyethylenimine to aid in the adherence of the cells to the plate.
Changes in the intracellular Ca^2+ content of IMR-32 cells were measured using the calcium chelating dye Fluo-4 (Molecular Probes, Eugene, Oreg.) in conjunction with a Fluorescent Imaging Plate Reader (Molecular Devices, Sunnyvale, Calif.). The cell permeant acetoxymethyl (AM) ester form of […] was prepared to a concentration of 1 mM in anhydrous DMSO and 10% pluronic acid. The dye was then diluted to a final concentration of […] in growth media and placed on the cells for 1 hour at 37° C. Black-walled 96-well plates were utilized to reduce light scattering. The unincorporated dye was removed from the cells by excessive washing with the assay buffer (HETES buffer, 20 mM Hepes, 120 mM NaCl, 5 mM KCl, 1 mM MgCl2, 5 mM glucose, […], and 5 mM CaCl2). […] The intensity of the fluorescence was captured by the CCD camera every second for the first minute following the agonist addition with additional readings every 5 seconds for a total time period of 5 minutes. These images were digitally transferred to an interfaced PC and change in fluorescence intensity processed for each well. The exposure setting of the camera was 0.4 sec with an f-stop setting of […].
The IMR-32 FLIPR assay, described herein, measures cation […] that is mediated through the ganglionic-like nicotinic acetylcholine receptor (nAChR) subtype. Agents that facilitate cation […] of the ganglionic nAChR subtype have been linked to side effect liabilty such as cardiovascular pressor effects.

[3] = molecular target: T2, neuronal nicotinic acetylcholine receptors (Rattus norvegicus, UniProt P09483+P12390); test: [3H]-cytisine binding to neuronal nicotinic acetylcholine receptors, crude synaptic membranes from whole rat brain; settings: [3H]-CYT 1.25 nM, Cheng and Prusoff correction
T2 construct: crude synaptic membrane preparations from whole rat brain; from tissue; host or cells: whole rat brain, crude synaptic membranes
Protocol: (1S,5S)-3-(5,6-Dichloro-3-pyridinyl)-3,6-diazabicyclo [3.2.0]heptane was subjected to an vitro assay against the nicotinic acetylcholine receptor as described below.
Binding of [^3H]-cytisine ([^3H]-CYT) to neuronal nicotinic acetylcholine receptors was accomplished using crude synaptic membrane preparations from whole rat brain (Pabreza et al., Molecular Pharmacol., 1990, 39:9). Washed membranes were stored at −80° C. prior to use. Frozen aliquots were slowly thawed and resuspended in 20 volumes of buffer (containing: 120 mM NaCl, 5 mM KCl, 2 mM MgCl2, 2 mM CaCl2 and 50 mM Tris-Cl, pH 7.4 @4° C.). After centrifuging at 20,000×g for 15 minutes, the pellets were resuspended in 30 volumes of buffer.
Each test compound was dissolved in water to make 10 mM stock solutions, diluted (1 :100) with buffer (as above), and further taken through seven serial log dilutions to produce test solutions from 10^−5 to 10^−11 M.
Homogenate (containing 125-150 μg protein) was added to triplicate tubes containing the range of concentrations of test compound described above and [^3H]-CYT (1.25 nM) in a final volume of 500 μL. […] The filters are counted in 4 mL of Ecolume® (ICN). Nonspecific binding was determined in the presence of 10 μM (−)-nicotine and values were expressed as a percentage of total binding. […]

[4] = test system: scopolamine-induced cognitive deficit; test: Morris water maze, spatial discrimination version, scopolamine-induced cognitive deficit; assay type: in vivo, rat; settings: about 0.001 to about 5 μmol/kg, 30 minutes prior to the test; scopolamine-HBr 0.3 mg/kg i.p.
Protocol: Male, Long-Evans rats, 300-400 g, obtained from Charles River laboratories were used in this study. During two daily habituation sessions, rats are trained to find a visible escape platform in a pool (180 cm diameter and 60 cm high) filled to a depth of 37 cm with water made opaque with powdered milk. Water temperature is maintained at 26° C. On the second day of habituation training, latency to escape measures are obtained in order to assure that animals are assigned to groups without swim speed bias. For spatial discrimination training, two visible platforms, covered in aluminum foil, are present. The platforms remain in the same position (diagonal to each other) through 5 days of training. Only one of the platforms provides escape; the other, made of expanded polystyrene, will not support the animals' weight. Rats receive six trials/day, with start position changed from trial to trial. The number of contacts with the incorrect platform (errors) serves as the dependent variable.
A cognitive deficit, as measured by increased number of errors in the water maze test, is induced by i.p. administration of the muscarinic antagonist scopolamine-HBr (0.3 mg/kg), dosed 15 min prior to each daily discrimination training session (over five days total).

[5] = IMR-32, Table 1, relative to nicotine, read-out: IMR-32 activitiy % efficacy
[6] = Table 1, read-out: IMR-32 activitiy EC50
[7] = intraperitoneally 15 minutes before testing

T1 sequence (P32297 32-505): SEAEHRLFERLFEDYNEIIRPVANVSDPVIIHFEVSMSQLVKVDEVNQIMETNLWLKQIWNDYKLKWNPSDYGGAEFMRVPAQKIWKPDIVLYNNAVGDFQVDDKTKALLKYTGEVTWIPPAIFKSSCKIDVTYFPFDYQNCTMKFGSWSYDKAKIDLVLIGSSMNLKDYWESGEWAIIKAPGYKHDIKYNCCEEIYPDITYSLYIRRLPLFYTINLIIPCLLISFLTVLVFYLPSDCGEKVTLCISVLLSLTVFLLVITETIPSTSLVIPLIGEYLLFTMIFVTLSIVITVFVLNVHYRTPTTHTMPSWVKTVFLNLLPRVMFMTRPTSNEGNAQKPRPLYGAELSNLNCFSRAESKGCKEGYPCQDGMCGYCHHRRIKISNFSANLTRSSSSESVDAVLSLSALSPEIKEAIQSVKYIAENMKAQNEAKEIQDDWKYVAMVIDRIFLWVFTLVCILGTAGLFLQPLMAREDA
T1 sequence (P30926 22-498): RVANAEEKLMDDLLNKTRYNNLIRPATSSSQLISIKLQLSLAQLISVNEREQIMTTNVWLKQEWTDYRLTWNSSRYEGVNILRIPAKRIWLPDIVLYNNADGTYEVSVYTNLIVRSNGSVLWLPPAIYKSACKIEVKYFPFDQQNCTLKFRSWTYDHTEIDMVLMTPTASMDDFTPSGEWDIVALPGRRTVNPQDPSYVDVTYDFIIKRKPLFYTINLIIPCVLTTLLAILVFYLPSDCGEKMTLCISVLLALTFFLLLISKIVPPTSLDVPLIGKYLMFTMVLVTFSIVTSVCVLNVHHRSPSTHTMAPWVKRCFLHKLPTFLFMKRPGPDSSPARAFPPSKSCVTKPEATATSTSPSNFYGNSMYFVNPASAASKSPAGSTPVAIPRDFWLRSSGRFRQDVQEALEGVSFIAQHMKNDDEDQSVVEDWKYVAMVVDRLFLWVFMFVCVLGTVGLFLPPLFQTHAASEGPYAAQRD
T2 sequence (P09483 31-630): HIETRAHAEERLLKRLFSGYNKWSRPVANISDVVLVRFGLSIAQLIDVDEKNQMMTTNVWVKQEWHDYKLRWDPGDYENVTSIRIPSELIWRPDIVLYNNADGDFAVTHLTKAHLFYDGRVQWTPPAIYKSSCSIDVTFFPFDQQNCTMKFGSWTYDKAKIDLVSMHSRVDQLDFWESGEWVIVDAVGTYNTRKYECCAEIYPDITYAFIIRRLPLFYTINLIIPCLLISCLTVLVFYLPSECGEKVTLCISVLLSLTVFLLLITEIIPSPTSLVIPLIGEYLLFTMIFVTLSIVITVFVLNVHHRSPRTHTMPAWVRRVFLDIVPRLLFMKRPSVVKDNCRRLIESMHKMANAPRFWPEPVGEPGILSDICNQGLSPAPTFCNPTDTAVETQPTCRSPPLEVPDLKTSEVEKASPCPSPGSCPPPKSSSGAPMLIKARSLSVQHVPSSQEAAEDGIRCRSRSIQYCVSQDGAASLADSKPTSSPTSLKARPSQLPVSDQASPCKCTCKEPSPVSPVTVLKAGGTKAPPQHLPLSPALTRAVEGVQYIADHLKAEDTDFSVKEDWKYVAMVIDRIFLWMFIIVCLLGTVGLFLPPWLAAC
T2 sequence (P12390 25-500): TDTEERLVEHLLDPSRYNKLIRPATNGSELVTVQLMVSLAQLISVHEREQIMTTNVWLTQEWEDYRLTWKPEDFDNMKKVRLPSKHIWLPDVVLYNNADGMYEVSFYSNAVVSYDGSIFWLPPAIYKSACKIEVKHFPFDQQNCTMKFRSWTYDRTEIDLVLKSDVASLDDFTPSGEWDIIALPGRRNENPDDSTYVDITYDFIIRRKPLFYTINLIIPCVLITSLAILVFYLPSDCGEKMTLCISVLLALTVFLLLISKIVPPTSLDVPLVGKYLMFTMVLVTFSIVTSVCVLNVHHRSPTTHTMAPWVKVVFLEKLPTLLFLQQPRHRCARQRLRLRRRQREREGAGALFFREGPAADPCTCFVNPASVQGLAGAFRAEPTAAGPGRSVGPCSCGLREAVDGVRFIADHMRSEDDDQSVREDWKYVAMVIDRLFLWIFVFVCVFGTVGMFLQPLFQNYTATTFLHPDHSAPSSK

Row | Structure (SMILES) | ED50 [1] | pEC50 [2] | Emax [2, 5] | pEC50 [2, 6] | also measured
1 | N#Cc1cc(N2C[C@@H]3CN[C@@H]3C2)cnc1Br [2-bromo-5-[(1S,5S)-3,6-diazabicyclo[3.2.0]hept-3-yl]nicotinonitrile] | > 19 µmol/kg | 5.92 | 103% |  | 
2 | N#Cc1cncc(N2C[C@@H]3CN[C@@H]3C2)c1 [5-[(1S,5S)-3,6-diazabicyclo[3.2.0]hept-3-yl]nicotinonitrile] | > 19 µmol/kg |  | 85% | 4.70 | 
3 | Clc1cc(N2C[C@H]3CN[C@H]3C2)cnc1Cl [(1R,5R)-3-(5,6-dichloro-3-pyridinyl)-3,6-diazabicyclo[3.2.0]heptane] |  |  | 106% | 7.11 | 
4 | c1cncc(N2C[C@@H]3CN[C@@H]3C2)c1 [(1S,5S)-3-(3-pyridinyl)-3,6-diazabicyclo[3.2.0]heptane] | 20 µmol/kg |  | 100% | 4.63 | 
5 | Clc1cc(N2C[C@@H]3CN[C@@H]3C2)cnc1Cl [(1S,5S)-3-(5,6-dichloro-3-pyridinyl)-3,6-diazabicyclo[3.2.0]heptane] |  |  | 73% |  | pKi [3]: 10.00; ED50 ([1]; Table 1): 1 µmol/kg; ED50 (increase in withdrawal threshold) [1, 7]: 1 µmol/kg; effect on withdrawal threshold [1, 7]: dose-dependent increase in the withdrawal threshold; maximum effect on withdrawal threshold ([1]; intraperitoneally 15 minutes before testing, baseline threshold <4 g): 15 g; Emax ([2]; IMR-32, relative to 100 μM nicotine (100%), read-out: maximum efficacy compared to nicotine): 73%; pEC50 ([2]; percent maximal intensity relative to 100 μM nicotine, read-out: EC50 (calcium, IMR-32 cells)): 5.26; effect on scopolamine-induced cognitive deficit in water maze (errors) [4]: reversed the cognitive deficit and normalized the performance of the animals in the water maze
6 | COc1cncc(N2C[C@@H]3CN[C@@H]3C2)c1 [(1S,5S)-3-(5-methoxy-3-pyridinyl)-3,6-diazabicyclo[3.2.0]heptane] | > 19 µmol/kg | 5.42 | 147% |  | 
7 | Clc1cc(N2C[C@@H]3CN[C@@H]3C2)cnc1Br [(1S,5S)-3-(6-bromo-5-chloro-3-pyridinyl)-3,6-diazabicyclo[3.2.0]heptane] | > 19 µmol/kg | 5.85 | 81% |  | 
8 | Clc1ccc(N2C[C@@H]3CN[C@@H]3C2)cn1 [(1S,5S)-3-(6-chloro-3-pyridinyl)-3,6-diazabicyclo[3.2.0]heptane] | 11 µmol/kg | 5.85 | 102% |  | 
9 | Cc1cc(N2C[C@@H]3CN[C@@H]3C2)cnc1Cl [(1S,5S)-3-(6-chloro-5-methyl-3-pyridinyl)-3,6-diazabicyclo[3.2.0]heptane] | > 19 µmol/kg | 5.47 | 94% |  | 
10 | Clc1ccc(C2CC3CCC2N3)cn1 (stereo not drawn) [epibatidine] |  |  |  |  | Emax ([2]; IMR-32, read-out: maximum efficacy compared to nicotine): 137%
